The subject of test [1] is CpG residue located at −256 position within the γ-globin promoter region. As to the kind of experiment: COBRA (Combined Bisulfite Restriction Analysis) of DNA methylation. Format: cell-based, human. The procedure:
DNA was prepared from cultured CD34^+ cells (0.5-2.0×10^6 total cells) using the QIAamp DNA blood Minikit (Qiagen, Valencia, Calif.) according to manufacturer's instructions. The purified DNA was digested with 10-20 units Hind III at 37° C. for one hour followed by two extractions with a 50/50/1 mixture of phenol/chloroform/isoamyl:alcohol saturated with 0.5 M Tris, pH 7.5. The digested DNA was precipitated overnight at −20° C. in the presence of 2.5 volumes ethanol and 0.3 M sodium acetate, pH 7.0. DNA was harvested by centrifugation, washed 2× in 70% ethanol and dissolved in H2O.
DNA Denaturation was performed by incubation of 1-2 μg DNA in 10-20 μl 0.3 M NaOH at 37° C. for 20 minutes. Bisulfite modification was performed by the addition of 200 μl bisulfite solution (2.5 M sodium metabisulfite, 100 mM hydroquinone) prepared according to the method as described (Clark et al., Nucleic Acid Res. 22:2990-2997, 1994; Raizis et al., Anal. Biocem; 226:161-166, 1995; Xiong et al., Nucleic Acid Res., 2532-2534, 1997), followed by incubation for 4 hours at 50° C. […]
For COBRA (Combined Bisulfite Restriction Analysis), a 201 bp fragment of the γ-globin promoter region was amplified by two rounds of PCR using doubly nested primers. […] Digested products were analyzed by polyacrylamide gel electrophoresis (5% gel), visualized by staining with ethidium bromide, and quantified by densitometry.

In test [2] the test system is adult human bone marrow CD34+ cells. The experiment in a line: Phenotypic analysis (FACS) of marrow CD34+ cells after ex vivo culture. The settings on record: 9 days of culture; single agent; % of total cells. The class given is cell-based. The procedure:
To promote cell division of isolated CD34^+ cells, a stroma-free suspension culture was established as previously described (Bazil et al., 1995). Tissue culture dishes (35 mm; Costar, Corning, N.Y.) were seeded with 1×10^5 CD34^+cells/well in 2.5 mL Iscove modified Dulbecco medium (IMDM) (Biowhittaker, Walkersville, Md.) containing 30% FBS and a cocktail of cytokines specifically thought to promote exit from G0/G1 in primitive HSC populations which consisted of 100 ng/mL recombinant stem cell factor (SCF), 100 ng/mL FLT-3 ligand, 100 ng/mL thrombopoetin (TPO) and 50 ng/mL of interleukin (IL)-3, (all from Amgen Inc., Thousand Oaks, Calif.).
Cells were maintained in the media and incubated at 37° C. in a 100%-humidified atmosphere containing 5% CO2 for 48 hours. After intial 16 hours of incubation cells were exposed to the demethylating agent, 5-aza2′deoxycitidine (5azaD) (Sigma Chemicals, St. Louis, Mo.) at a concentration of 10^−6M. After 48 hours, cells were washed by centrifugation and then equally distributed to new tissue culture dishes in 2.5 mL IMDM supplemented with 30% FBS containing cytokines known to promote terminal differentiation of HSC into multiple hematopoietic lineages. The cocktail of cytokines contained 100 ng/mL of SCF, 50 ng/ml of granulocyte colony-stimulating factor (G-CSF), 50 ng/mL of IL-3, 50 ng/ml of IL-6 and 5 units (U)/mL of recombinant erythropoietin (EPO) (Amgen Inc., Thousand Oaks, Calif.). Cells at this time point were exposed to Trichostatin (TSA) (Sigma Chemical., St. Louis, Mo.) at 5 ng/mL and the culture was continued for an additional 7 days. At the end of the culture period cells were counted for viability by the trypan blue exclusion method using an inverted microscope. 5-fluorouracil (5-FU) (Sigma Chemical., St. Louis, Mo.) was used at a concentration of 200 μg/ml and added at the 16 hour time point instead of 5azaD and the cultures carried on as described above with no addition of TSA.
The phenotypic characteristics of the CD34^+ cells were analyzed using FACS. After 9 days of culture, expanded marrow CD34^+ cells were analyzed for primitive HSC phenotype, previously defined, by using flow activated-cell sorter (FACS) (Becton Dickinson (BD) FACS Calibur, San Jose, Calif.). Cells were stained with anti-human CD34^+ moAb conjugated either to fluorescein isothiocyanate (FITC) or phycoerythrin (PE) and another moAb including anti-CD38, anti-CD117, anti-CD90. To determine the lineage positive cells a panel of moab all conjugated to FITC (anti-CD2, anti-CD14, anti-CD15, anti-CD19 and anti-GlyA) (all antibodies were purchased from BD) were utilized. All anaylsis were paired with the corresponding matched isotype control of the specific moAb utilized. All staining and washes were performed in DPBS (Biowhittaker, Walkersville Md.) and 0.5% BSA (Sigma, Chemicals Co., St. Louis, Mo.). Immediately prior to FACS anaylsis, […] propidium iodide (PI) (Sigma, Chemicals Co., St. Louis, Mo.) was added for the exclusion of nonviable cells for phenotypic analysis. Using Cell-Quest software (BD), at least 10,000 live cells were acquired for each analysis.

The values below come from patent US7927785B2, “Methods for in vitro expansion of hematopoietic stem cells” (The Board of Trustees of the University of Illinois, priority 2002, dated 2011).

As for `Nc1ncn([C@H]2C[C@H](O)[C@@H](CO)O2)c(=O)n1` [5azaD, 5-aza2′deoxycitidine], the “% Hypomethylation” value in test [1] (5 days of culture, 5azaD 10−6M, TSA 5 ng/ml, approximated) is recorded as 68%. Besides, the “% Methylation (COBRA, −256 position of γ-globin promoter)” value in test [1] (cultured 5 days with cytokines, densitometry) was found to be 32%. For the same compound, in test [2], the “CD34+ CD90+ %” value turned out to be 7%, the “CD34+ CKit lo %” value amounted to 19%, the “CD34+ Lin− %” value was found to be 30% and the “CD34+CD38− %” value was determined as 20%. Moreover, in test [2], the “CD34+CD133+ %” value is on record as 12% and the “Total CD34+ %” value is on record as 30%.

As to `CC(/C=C/C(=O)NO)=C\[C@@H](C)C(=O)c1ccc(N(C)C)cc1` [TSA, Trichostatin A], in test [2], the “CD34+ CD90+ %” value is on record as 0.8%, the “CD34+ CKit lo %” value turned out to be 3%, the “CD34+ Lin− %” value is given as 4% and the “CD34+CD38− %” value is 1.8%. In addition, in test [2], the “CD34+CD133+ %” value came out at 0.45% and the “Total CD34+ %” value turned out to be 4%.
